Reference: EP0097071A1, “Benzhydryl sulfinylacetamide derivatives and their therapeutical use” (LABORATOIRE L. LAFON Société anonyme dite:, priority 1982, dated 1983)

Assays:
[1] = tested on: SNC; test: Essential activity on the CNS (Tableau I and conclusions of the neuropsychopharmacological study); assay type: in vivo; conditions: in vivo
Source text: Dans le tableau I ci-après, on a consigné un certain nombre de composés selon la formule I de façon nullement limitative, en mentionnant l'activité essentielle sur le SNC.
Les composés de formule I agissent tous sur le SNC. Les produits des exemples 1-3 et 7-8 sont des agents stimulants, en revanche les produits des exemples 4-6 sont des agents sédatifs.

[2] = tested on: souris mâle; test: Pentobarbital-induced sleep duration; assay type: in vivo; conditions: dose 32 mg/kg i.p., 0,5 h before pentobarbital
Source text: Les composés selon l'invention se distinguent du benzhydrylsulfinylacétamide (CRL 40476) précité par une différence d'action vis-à-vis du sommeil barbiturique. […]. Cette différence d'action qui est intéressante sur le plan thérapeutique est illustrée par le tableau IV

[3] = tested on: souris mâle; test: Toxicity, DL-0; assay type: in vivo; conditions: i.p.
Method in brief: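 Male mice dosed intraperitoneally with compound suspended in aqueous gum arabic at 20 ml/kg. Value is DL-0, the minimal non-lethal dose.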

[4] = tested on: souris mâles; test: Global behaviour and reactivities, mouse; assay type: in vivo
[5] = tested on: rats mâles; test: Global behaviour and reactivities, rat; assay type: in vivo
[6] = tested on: souris; test: Interaction with apomorphine, mouse; assay type: in vivo
Method in brief: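 Male mice, 6 per dose, received the test compound intraperitoneally as an aqueous gum arabic suspension (20 ml/kg).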

[7] = tested on: rat; test: Interaction with apomorphine, rat; assay type: in vivo; conditions: 64 mg/kg i.p.
Method in brief: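 Groups of 6 male rats received test compound intraperitoneally as a suspension in aqueous gum arabic (5 ml/kg).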

[8] = tested on: rats; test: Interaction with amphetamine (stereotypies); assay type: in vivo; conditions: rat, 64 mg/kg i.p.
Method in brief: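 Male rats, groups of 6, given test compound i.p. as aqueous gum arabic suspension; amphetamine 2 mg/kg i.p. injected 30 min later and stereotypies scored.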

[9] = tested on: souris; test: Interaction with reserpine; assay type: in vivo; conditions: 32 mg/kg, 64 mg/kg et 128 mg/kg i.p.
[10] = tested on: souris; test: Interaction with oxotremorine; assay type: in vivo
Method in brief: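 Groups of 6 male mice received test compound i.p. as a suspension in aqueous gum arabic (20 ml/kg).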

[11] = tested on: souris; test: Four plates test; assay type: in vivo; conditions: 0,5 h after administration, dose not stated
[12] = tested on: souris; test: Traction test; assay type: in vivo; conditions: 0,5 h after administration, dose not stated
[13] = tested on: souris; test: Electroshock; assay type: in vivo; conditions: dose not stated
[14] = tested on: souris; test: Spontaneous motility (actimeter); assay type: in vivo; conditions: 8 mg/kg, 32 mg/kg et 128 mg/kg i.p.
Method in brief: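 Male mice dosed i.p. as a suspension in aqueous gum arabic (20 ml/kg); 30 min later they are placed in an actimeter and motility is recorded for 30 min, 6 mice per dose, 12 controls.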

[15] = tested on: souris; test: Intergroup aggressiveness; assay type: in vivo; conditions: dose not stated
Method in brief: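 Male mice, housed in groups of 3 on either side of an opaque partition for 3 weeks, received compound i.p. as a gum arabic suspension at 20 ml/kg. After 30 min the partition was removed, and fights were counted over 10 min.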

[16] = tested on: souris; test: Motility reduced by habituation to the enclosure; assay type: in vivo; conditions: dès 8 mg/kg et surtout à 32 mg/kg et 128 mg/kg i.p.
Method in brief: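 Male mice (6 per dose, 12 controls) habituated 18 h in actimeters got compound i.p. as aqueous gum arabic suspension, 20 ml/kg. Returned to enclosures immediately; motility recorded for 30 min starting 30 min post-dose.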

[17] = tested on: souris; test: Motility reduced by hypoxic aggression (acute hypobaric anoxia); assay type: in vivo; conditions: 32 mg/kg, mais surtout 128 mg/kg i.p.
Method in brief: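 Male mice (10 per dose, 20 controls) got compound i.p. as an aqueous gum arabic suspension (20 ml/kg). Thirty minutes later they underwent acute hypobaric anoxia: 600 mm Hg depression over 90 s, then 45 s release. Motility was then recorded in an actimeter for 10 min.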

[18] = tested on: souris; test: Asphyxic anoxia (gallamine triethiodide); assay type: in vivo; conditions: dose not stated
Method in brief: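 Male mice, 10 per dose, given compound i.p. as suspension in aqueous gum arabic (20 ml/kg). Gallamine triethiodide 32 mg/kg i.p. injected 30 min after compound.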

[19] = tested on: souris; test: Interaction with barbital (sleep); assay type: in vivo; conditions: 32 mg/kg et 128 mg/kg i.p.
Method in brief: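 Male mice (groups of 10) dosed intraperitoneally with compound suspended in aqueous gum arabic (20 ml/kg); barbital 220 mg/kg i.p. given half an hour later.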

[20] = tested on: souris; test: Behavioural despair (forced immersion); assay type: in vivo; conditions: 8 mg/kg, 32 mg/kg et 128 mg/kg i.p.
Method in brief: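 Male mice were dosed i.p. with compound suspended in aqueous gum arabic at 20 ml/kg, 10 per dose. Thirty minutes later each mouse was put in a confined space holding 6 cm of water, and immobility time was scored from minute 2 to minute 6.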

[21] = tested on: homme; test: Clinical trials; assay type: in vivo
Source text: Les études cliniques ont porté sur les troubles de la vigilance, de l'éveil et des états confusionnels, d'une part, et sur les troubles de l'affectivité, du contact et des dépressions, d'autre part.

[22] = tested on: souris groupées; test: Toxicity in grouped mice; conditions: in vivo

`NC(=O)C[S+]([O-])C(c1ccc(F)cc1)c1ccc(F)cc1` (centres unmarked) [Exemple 8, 4,4'-difluorobenzhydrylsulfinylacétamide] was tested, and the “Activité sur le SNC” value [1] was “stimulant”, the “conclusion of the neuropsychopharmacological study: main type of CNS effect” value [1] was “composante excitante” and the “Action sur la durée du sommeil induit par le pentobarbital (50 mg/kg i.p.) effet” value [2] was “(a)”. The DL-O [3] was “supérieure à 256 mg/kg”, the “signes de stimulation sympathique périphérique” value ([4]; souris) was “absence” and the “Observations (comportement global et réactivités)” value (“Observations” below) ([4]; souris, 2 mg/kg i.p.) was “réactivité au toucher pendant 2 h”. The “Observations” value ([4]; souris, 8 mg/kg i.p.) was “éxcitation tardive débutant 2 h après administration - réactivité au toucher pendant 2 h”, the “Observations” value ([4]; souris, 512 mg/kg i.p.) was “démarche titubante pendant 0,75 h, - convulsions (66% des animaux) pendant 0,75 h” and the mortalité ([4]; souris, 512 mg/kg i.p.) was 4 animaux sur 6 en 1 h, puis 2 animaux sur 6 en 24 h. For the same compound, the convulsions ([4]; souris, 512 mg/kg i.p., pendant 0,75 h) was 66 % des animaux, the “Observations” value ([4]; souris, 32 mg/kg i.p.) was “excitation tardive débutant 1 h après administration et durant 2 h - stéréotypies 3 h après administration - réactivité au toucher pendant 24 h” and the “Observations” value ([4]; souris, 128 mg/kg i.p.) was “excitation avec stéréotypies pen-dant 3 h - augmentation de la réactivité au toucher pendant 24 h - hypothermie (-1,3°C) pendant 3 h”. For the same compound, the hypothermie ([4]; souris, 128 mg/kg i.p.) was -1,3 °C, the “Observations” value ([4]; souris, 256 mg/kg i.p.) was “excitation débutant 0,5 h après adminis-tration - stéréotypies” and the mortalité ([4]; souris, 256 mg/kg i.p.) was “pas de mortalité”. The résorption ([4]; supposed from the late onset of several effects and the kinetic study of stereotypies) was “résorption lente”, the “Observations” value ([5]; 16 mg/kg i.p.) was “excitation - réactivité au toucher pendant 2 h” and the “Observations” value ([5]; 64 mg/kg i.p.) was “excitation - réactivité au toucher - fréquence respiratoire augmentée pendant 24 h”. For the same compound, the “own effect on temperature” value ([6]; 32 mg/kg et 128 mg/kg i.p.) was “hypothermisant”, the “hypothermie induite par l'apomorphine” value ([6]; 32 mg/kg et 128 mg/kg i.p., apomorphine 1 et 16 mg/kg) was “aggrave” and the “comportement de verticalisation et stéréotypies (apomorphine)” value ([6]; dose not stated) was “ne modifie pas”. For the same compound, the “stéréotypies induites par l'apomorphine” value [7] was “augmente”, the “stéréotypies amphétaminiques” value [8] was “potentialisation” and the “hypothermie réserpinique” value [9] was “antagonise tardivement”. For the same compound, the “ptôsis réserpinique” value ([9]; à 24 h) was “antagonise également mais de façon modérée”, the “hypothermie induite par l'oxotrémorine” value ([10]; 2 mg/kg, 8 mg/kg, 32 mg/kg et 128 mg/kg i.p.) was “antagonise modérément et tardivement” and the “signes de stimulation cholinergique périphérique dus à l'oxotrémorine” value ([10]; dose not stated) was “ne modifie pas”. The “tremblements induits par l'oxotrémorine” value ([10]; dose not stated) was “ne sont pratiquement pas modifiés”, the “nombre de passages punis” value [11] was “n'entraîne pas d'augmentation” and the “déficit moteur (traction)” value [12] was “ne provoque pas d'incapacité motrice majeure”. The “effets convulsivants de l'électrochoc” value [13] was “ne modifie pratiquement pas”, the “motilité spontanée” value [14] was “augmentation nette” and the “agressivité intergroupes (nombre de combats)” value [15] was “n'a pas d'effet antiagressif”. For the same compound, the “activité motrice chez la souris habituée à son enceinte” value [16] was “reprise d'activité motrice très nette”, the “récupération motrice après séjour bref dans une enceinte à pression réduite” value [17] was “amélioration significative” and the “délai d'apparition des convulsions et de la mort consécutives à une anoxie asphyxique” value [18] was “ne modifie pas”. For the same compound, the “durée du sommeil barbiturique” value [19] was “diminue nettement”, the “durée d'immobilité de la souris placée en immersion forcée” value [20] was “diminue nettement” and the “action contre l'énurésie” value [21] was “agissent efficacement”. For the same compound, the “résultats en tant que médicaments de l'éveil” value ([21]; notamment vieillard, gélules ou comprimés de 100 à 200 mg, 1 à 3 par jour) was “excellents résultats” and the “toxicité particulière chez les souris groupées” value [22] was “absence de toxicité particulière”.
